Assay results from publication PMC12418948, “Intranasal Administration of KCNN2 Blocking Peptide Improves Deficits in Cognitive Flexibility in Mouse Model of Fetal Alcohol Spectrum Disorders” (International Journal of Neuropsychopharmacology, 2025).
pIC50: −log10 of the molar value. Positions of bridges follow the written chain, without caps; N, C: chain ends. Residues, ends and D or L forms follow the SMILES beside them. No end group written: not given here.

Columns and labels:
KCNN (SK) channel = conditions: cited from earlier work
[1] = test system: older adults affected by Alzheimer disease or mild cognitive impairment; conditions: intranasal; older adults with Alzheimer disease or mild cognitive impairment; cited from earlier work
Text: (§1) The potential of intranasal delivery in treating a broad spectrum of neurological disorders, especially those related to memory and cognition, is noteworthy.[28] Historically, intranasal administration has gained attention in clinical trials as an effective delivery method, especially for small molecules ...

human KCNN2 = human KCNN2 (Homo sapiens, UniProt Q9H2S1); test: Thallium flux assay, KCNN2 channel block; format: cell-based; conditions: HEK293 stably expressing human KCNN2; thallium flux, FLIPR Potassium Assay Kit, FLIPR TETRA; 4 concentrations, n = 4; 0% = 1 μM A23187, 100% = 3 μM UCL1684
Chain of human KCNN2 (Q9H2S1 whole entry): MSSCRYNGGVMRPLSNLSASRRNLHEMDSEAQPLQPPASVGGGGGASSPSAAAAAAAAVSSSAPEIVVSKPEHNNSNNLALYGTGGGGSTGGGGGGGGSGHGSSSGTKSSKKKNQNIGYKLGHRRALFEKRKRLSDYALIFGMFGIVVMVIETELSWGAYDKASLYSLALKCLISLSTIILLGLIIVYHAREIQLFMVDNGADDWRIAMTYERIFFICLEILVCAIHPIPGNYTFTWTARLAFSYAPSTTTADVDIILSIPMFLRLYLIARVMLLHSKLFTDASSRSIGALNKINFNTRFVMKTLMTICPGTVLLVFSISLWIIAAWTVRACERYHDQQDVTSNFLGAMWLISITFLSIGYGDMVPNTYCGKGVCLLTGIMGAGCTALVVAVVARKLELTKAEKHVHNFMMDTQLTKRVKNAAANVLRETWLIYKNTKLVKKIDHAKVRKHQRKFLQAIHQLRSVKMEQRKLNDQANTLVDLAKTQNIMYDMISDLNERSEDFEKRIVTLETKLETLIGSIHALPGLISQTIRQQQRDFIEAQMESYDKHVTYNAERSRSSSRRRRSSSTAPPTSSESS
Experimental: The effect of tamapin and Lei-Dab7 to block the KCNN2 channel was assessed by the thallium flux (potassium ion surrogate) assay using FLIPR Potassium Assay KIT (Molecular Devices, CA) and a FLIPR TETRA fluorescence imaging plate reader (Molecular Devices, CA). Human embryonic kidney (HEK) 293 cell line stably expressing human KCNN2 (Charles River, MA) were plated on BioCoat Poly-D-Lysine 384-well Black/Clear Plates (BD Biosciences, NJ) at 15 000 to 30 000 cells per well and incubated at 37°C overnight or until cells form near confluent monolayer. A baseline fluorescence was recorded during the pre-incubation period, followed by activation in the stimulus buffer (K^+-free buffer with 5 mM Tl^+). The effects of tamapin and Lei-Dab7 on KCNN2 to inhibit KCNN2 channel were evaluated at 4 different concentrations (n = 4) each, based on fluorescence changes due to the treatments. The signal elicited by the respective positive control agonist [1 μM A23187 (Tocris, UK)] was set to 0% inhibition, and the signal in the presence of the respective positive control antagonists [3 μM UCL1684 (Tocris, UK)] was set to 100% inhibition. The IC50 values were defined as the concentration at which the percent inhibition equals 50.
To determine the dose of Lei-Dab7 to be tested, we compared the effect of Lei-Dab7 and tamapin in blocking human KCNN2 expressed in HEK293 cells using a thallium-based potassium ion channel assay. […] Based on the effective dose of tamapin in mitigating motor skill–learning deficits in PAE mice (15 μg/kg body weight via i.p.)[17] and higher brain uptake of therapeutics by intranasal delivery than by i.p. delivery, we chose a dose of 3.0 μg/kg body weight to test the effect of intranasal administration of Lei-Dab7.
Supplementary Figure 3. Concentration-response relationships of Lei-Dab7 and Tamapin on the Inhibition of KCNN2 channels. (A, B) The concentration-response relationships of Lei-Dab7 (A) and Tamapin (B) on the inhibition of KCNN2 (SK2) channels examined by the thallium flux assay are presented. […]

[2] = i.p. administration, PAE mice; cited from earlier work
Text: KCNN2 plays a key role in regulating neuronal excitability by controlling the medium afterhyperpolarization.[20] Previous studies have shown that KCNN2 blockers have therapeutic effects to improve learning and memory in several mouse and rat models of neuropsychiatric disorders associated with increased KCNN2 expression.[21–24]

KCNN2 = conditions: compared with Lei-Dab7; cited from earlier work
Text: KCNN2 plays a key role in regulating neuronal excitability by controlling the medium afterhyperpolarization.[20] Previous studies have shown that KCNN2 blockers have therapeutic effects to improve learning and memory in several mouse and rat models of neuropsychiatric disorders associated with increased KCNN2 expression.[21–24] […] In the current study, we used another KCNN2 blocker, Lei-Dab7 (a synthetic derivative of leiurotoxin), a peptide isolated from the venom of the yellow scorpion (L. quinquestriatus hebraeus). […] We evaluated intranasal administ ... || Taken together, our findings advocate for the therapeutic potential of Lei-Dab7 or other KCNN2 blockers for FASD and possibly other neurodevelopmental diseases that similarly involve KCNN2 upregulation, such as Angelman syndrome.[21] Lei-Dab7 stands out for its high potency and specificity in blocking the KCNN2 channel. […] Despite outstanding properties, Lei-Dab7’s bioavailability, efficacy, and toxicity as a the ...

rat = test system: rat; parameters: method as in 2 sources, one per row (each row's own in cited_ref): ref 82 = [82]; PMID 15985330; doi:10.1016/j.neulet.2005.05.050; 82. Deschaux O , Bizot JC . Apamin produces selective improvements of learning in rats . Neurosci Lett. 2005; 386 : 5 – 8 . 10.1016/j.neulet.2005.05.050 15985330 ||| ref 26, 82, 83 = [26]; PMID 18561910; doi:10.1016/j.ejphar.2008.05.019; 26. Mpari B , Sreng L , Regaya I , Mourre C . Small-conductance Ca(2+)-activated K(+) channels: heterogeneous affinity in rat brain structures and cognitive modulation by specific blockers . Eur J Pha || [82]; PMID 15985330; doi:10.1016/j.neulet.2005.05.050; 82. Deschaux O , Bizot JC . Apamin produces selective improvements of learning in rats . Neurosci Lett. 2005; 386 : 5 – 8 . 10.1016/j.neulet.2005.05.050 15985330 || [83]; PMID 9148239; doi:10.1016/s0304-3940(97)13367-5; 83. Deschaux O , Bizot JC , Goyffon M . Apamin improves learning in an object recognition task in rats . Neurosci Lett. 1997; 222 : 159 – 162 . 10.1016/s0304-3940(97)13367-5 9148239; conditions: cited from earlier work
[3] = intranasal vs subcutaneous or intramuscular administration; cited from earlier work
Text: as §1

[4] = pregnant CD-1 mice, i.p. 4.0 g/kg/day 25% ethanol at E16 and E17; from 30 minutes after injection at E16 to 1 hour after injection at E17; cited from earlier work
Experimental: All mice (CD-1) used in this study were purchased from Charles River Laboratories and were maintained in-house on a light–dark cycle (lights on 6:00 AM to 6:00 PM) at a constant temperature (22 ± 1°C). Pregnant mice received i.p. injections of 25% ethanol in PBS at 4.0 g/kg/day or PBS only as the control at embryonic day (E) 16 and E17. The dam’s blood alcohol concentration ranges from approximately 140 to 300 mg/dL (from 30 minutes after injection at E16 to 1 hour after injection at E17).[35] All procedures were approved by the institutional animal care and use committee of the Children’s Nat ...

[5] = test system: neurodevelopmental disorders such as autism spectrum disorder; conditions: nasal application; cited from earlier work
Text: as §1

Q: With `c1ccc2c(c1)c1cc[n+]2CCCCC[n+]2ccc(c3ccccc32)NCCCCCN1` [UCL 1848] as the compound, how does the “KCNN (SK) channel blocking specificity” value (KCNN (SK) channel) read?
A: The value was “nonspecific KCNN (SK) channel blockers”.

Q: Which “KCNN (SK) channel blocking specificity” value (KCNN (SK) channel) does the source give for `CN1CCc2cc3c(cc2[C@H]1[C@@H]1OC(=O)c2c1ccc1c2OCO1)OCO3` [bicuculline] here?
A: The value was “nonspecific KCNN (SK) channel blockers”.

Q: With `c1cc2cc(c1)C[n+]1ccc(c3ccccc31)NCc1ccc(cc1)CNc1cc[n+](c3ccccc13)C2` [UCL 1684] as the compound, how does the “KCNN (SK) channel blocking specificity” value (KCNN (SK) channel) read?
A: Its value is “nonspecific KCNN (SK) channel blockers”.

Q: With insulin as the compound, how does the memory effect [1] read?
A: Its memory effect is “improving memory”.

Q: With `CC[C@H](C)[C@@H]1NC(=O)[C@@H]2CSSC[C@H](NC(=O)[C@H](Cc3ccccc3)NC(=O)[C@H](C)N)C(=O)N[C@@H](CC(N)=O)C(=O)N[C@@H](CC(C)C)C(=O)N[C@@H](CCCNC(=N)N)C(=O)N[C@@H](CCCNC(=N)N)C(=O)N[C@H]3CSSC[C@H](NC(=O)[C@H](CCC(=O)O)NC(=O)[C@H](CCC(=O)O)NC(=O)CNC1=O)C(=O)N[C@@H](CCCCN)C(=O)N[C@H](C(=O)N[C@H](C(=O)N1CCC[C@H]1C(=O)N[C@@H](Cc1ccc(O)cc1)C(N)=O)C(C)C)CSSC[C@H](NC(=O)[C@H](CO)NC(=O)[C@H](CC(C)C)NC(=O)[C@H](CCC(=O)O)NC3=O)C(=O)N[C@@H](CCCNC(=N)N)C(=O)N[C@@H](CO)C(=O)N[C@@H](CC(C)C)C(=O)NCC(=O)N[C@@H](CC(C)C)C(=O)N[C@@H](CC(C)C)C(=O)NCC(=O)N[C@@H](CCCCN)C(=O)N2` [tamapin] (H-AFCNLRRCELSCRSLGLLGKCIGEECKCVPY-NH2; disulfide 3-21, 8-26, 12-28) as the compound, how does the pIC50 (human KCNN2) read?
A: Its pIC50 is 7.30.

Q: And the “crosses the blood brain barrier” value [2]?
A: The value was “crosses the blood brain barrier”.

Q: For “apamin (CNCKAPETALCARRCQQH-NH2; disulfide 1-11, 3-15; UniProt P01500 28-45, looked up)”, which “KCNN2 selectivity in words” value (KCNN2) is on record?
A: The value was “less selective KCNN2 blocker”.

Q: And the effect on learning (rat)?
A: Its effect on learning is “promote learning”.

Q: What about the “KCNN (SK) channel blocking specificity” value (KCNN (SK) channel) of the same compound?
A: The value was “nonspecific KCNN (SK) channel blockers”.

Q: For “mouse [D-Leu-4]OB3 [synthetic leptin-like peptide]”, which “brain bioavailability, intranasal vs other methods (times)” value [3] is on record?
A: The value was 4 times.

Q: With “scyllatoxin (AFCNLRMCQLSCRSLGLLGKCIGDKCECVKH; UniProt P16341 1-31, looked up)” as the compound, how does the “KCNN (SK) channel blocking specificity” value (KCNN (SK) channel) read?
A: The value was “nonspecific KCNN (SK) channel blockers”.

Q: With `CCO` [ethanol] as the compound, how does the “dam's blood alcohol concentration” value [4] read?
A: The value was 140 to 300 mg/dL.

Q: With oxytocin as the compound, how does the “efficacy, repeated doses” value [5] read?
A: The value was “inconsistent”.

Q: And the “efficacy, single administration” value [5]?
A: Its value is “promising”.
